# “Also recorded” adds a separate entry of the source. Where a SMILES comes first, the peptide text is derived from it. Bridges are numbered along the chain shown (N, C = ends).
# Legend:
# [1] = target: T1, human IAPP (hIAPP) (Homo sapiens, UniProt P10997); assay: Thioflavin T binding assay of hIAPP aggregation when mixed with IAPP peptides; assay type: biochemical; conditions: peptide mixed with hIAPP; no single assay (thioflavin T and AFM)
# T1 construct: This 37 amino acid polypeptide is co-secreted from pancreatic β-islet cells with insulin
# T1 sequence (P10997 34-70 limits assumed): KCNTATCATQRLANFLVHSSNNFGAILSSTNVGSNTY
# In short: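 37 μM hIAPP plus 75 μM animal IAPP (2:1) in 20 mM Tris pH 7.4, shaken 200 rpm at 37 °C for 40 min. Aliquots were mixed into 50.0 μM thioflavin T and emission read at 488 nm, with fibrils checked by AFM. Significance vs hIAPP alone was determined by t-test.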
# [2] = target: T1, human IAPP (hIAPP); assay: hIAPP aggregation in the presence of human insulin; assay type: biochemical
# [3] = AFM of peptide alone (self-aggregation / fibril formation); assay type: physicochemical; conditions: for aggregation propensity relative to comparator: comparison of pramlintide with the IAPP peptides
# Description: Samples labeled with hIAPP contained 40 μM hIAPP. The sample with pramlintide and hIAPP contained a 2:1 molar mixture (80 μM Pramlintide mixed with 40 μM hIAPP). The samples with raccoon IAPP and Pramlintide alone contained 40 μM of the indicated peptides. Each sample was incubated for 40 minutes at 37° C. with shaking; conditions known to promote hIAPP amyloid formation. All scans show raw data with no flattening and are […].
# Samples of hIAPP with or without animal IAPP were prepared as described in Example 1 and were then incubated with shaking at 37° C. for 40 minutes. After this incubation, 17 μL of each sample was deposited onto freshly cleaved mica. Samples were incubated for 5 minutes at room temperature before washing with 200 μL sterile water. After drying, the samples were scanned using an MFP-3D atomic force microscope (Asylum Research) set on A/C mode and a 240 m silicon cantilever (Olympus).
# Many of the animal IAPP variants are known to likewise form fibrils and yield amyloid-plaques when scanned via AFM. […] This is in spite of the fact that all of these IAPP peptides (except polar bear IAPP) are known to aggregate and form fibrils themselves under these or similar conditions
# [4] = tested on: RIN-m cells; assay: MTT viability assay, peptide alone or mixed with hIAPP; assay type: cell-based; conditions: for rescue / protection of cells from hIAPP toxicity (words): hIAPP mixed with peptide 1:1, MTT assay
# In short: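 RIN-m cells were exposed to hIAPP alone, each animal IAPP peptide alone, or hIAPP mixed with an animal IAPP for 46 h at 37° C in RPMI-1640 with 10% FBS. Viability by MTT reduction (2 h), formazan solubilized in SDS/DMF and read at 570 nm, relative to untreated cells as 100%.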
# [5] = target: T1, human IAPP (hIAPP); assay: Atomic force microscopy (AFM) of hIAPP fibril formation when mixed with IAPP peptides; assay type: biochemical; conditions: for inhibition of hIAPP fibril formation, AFM: 37 μM hIAPP and 75 μM peptide, 37° C. with shaking for 40 minutes
# In short: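 hIAPP (37–40 μM) alone or mixed with other IAPP peptides (equimolar or about 2:1 peptide:hIAPP) was shaken at 37° C for 30–40 minutes. Samples deposited on mica, washed with water, dried and imaged by AFM in A/C mode; scans […], raw unflattened data.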
# [6] = following injection; Wijesekara et al. 2015; cited from earlier work
# [7] = target: T2, human IAPP (Homo sapiens, UniProt P10997); conditions: cited from earlier work
# T2 sequence (P10997 34-70 limits assumed): T1 sequence (P10997 34-70 limits assumed)
Compound,inhibition of hIAPP aggregation (summary statement) [1],prevention of hIAPP aggregation in the presence of human insulin [2],aggregation propensity relative to comparator [3],rescue / protection of cells from hIAPP toxicity (words) [4],"inhibition of hIAPP fibril formation, AFM [5]",fasting blood glucose levels and glucose tolerance [6],decrease of cytotoxicity (literature) [7],inhibition of amyloid fibril formation (literature) [7],"aggregation / fibril formation of peptide alone, AFM ([3]; peptide alone, incubated 40 minutes at 37° C. with shaking)","toxicity of peptide to cells ([4]; peptide alone, MTT assay, pancreatic (RIN-m) cells)","prevention of hIAPP aggregation, AFM (FIG. 5) ([5]; 40 μM hIAPP, pramlintide 80 μM (2:1), 40 minutes at 37° C. with shaking)"
CC[C@H](C)[C@H](NC(=O)[C@H](C)NC(=O)CNC(=O)[C@@H](NC(=O)[C@H](CC(N)=O)NC(=O)[C@H](CO)NC(=O)[C@H](CO)NC(=O)[C@H](CO)NC(=O)[C@H](CCCNC(=N)N)NC(=O)[C@@H](NC(=O)[C@H](CC(C)C)NC(=O)[C@H](Cc1ccccc1)NC(=O)[C@H](CC(=O)O)NC(=O)[C@H](C)NC(=O)[C@H](CC(C)C)NC(=O)[C@H](CCCNC(=N)N)NC(=O)[C@H](CCC(N)=O)NC(=O)[C@@H](NC(=O)[C@@H](NC(=O)[C@@H]1CSSC[C@H](NC(=O)[C@@H](N)CCCCN)C(=O)N[C@@H](CC(N)=O)C(=O)N[C@@H]([C@@H](C)O)C(=O)N[C@@H](C)C(=O)N[C@@H]([C@@H](C)O)C(=O)N1)C(C)C)[C@@H](C)O)C(C)C)[C@@H](C)CC)C(=O)N[C@@H](Cc1ccc(O)cc1)C(=O)N[C@@H](CO)C(=O)N1CCC[C@H]1C(=O)N[C@H](C(=O)N[C@@H](CC(N)=O)C(=O)N[C@H](C(=O)NCC(=O)N[C@@H](CO)C(=O)N[C@@H](CC(N)=O)C(=O)N[C@H](C(=O)N[C@@H](Cc1ccc(O)cc1)C(N)=O)[C@@H](C)O)C(C)C)[C@@H](C)O [chicken IAPP] (H-KCNTATCVTQRLADFLVRSSSNIGAIYSPTNVGSNTY-NH2; disulfide 2-7 (inferred); N-terminus and C-terminus assumed),able to inhibit such aggregation; also recorded: inhibit aggregate formation by hIAPP,prevent hIAPP aggregation in the presence of human insulin,less aggregation-prone than Pramlintide,significant increase in cell viability; also recorded: rescue living cells from the toxic effects of hIAPP,significant ability to prevent fiber formation,,,,,,
"ANFLVH (Islet amyloid polypeptide; UniProt P10997 46-51, looked up, fragment) [peptide derived from human IAPP, from Wijesekara et al. 2015]",,,,,,improve fasting blood glucose levels and glucose tolerance,decrease cytotoxicity,inhibit amyloid fibril formation,,,
CC[C@H](C)[C@H](NC(=O)[C@H](C)NC(=O)CNC(=O)[C@H](CC(C)C)NC(=O)[C@H](CC(N)=O)NC(=O)[C@H](CC(N)=O)NC(=O)[C@H](CO)NC(=O)[C@H](CO)NC(=O)[C@H](CCCNC(=N)N)NC(=O)[C@H](CC(C)C)NC(=O)[C@H](CC(C)C)NC(=O)[C@H](Cc1ccccc1)NC(=O)[C@H](CC(N)=O)NC(=O)[C@H](C)NC(=O)[C@H](CC(C)C)NC(=O)[C@H](CCCNC(=N)N)NC(=O)[C@H](CCC(N)=O)NC(=O)[C@@H](NC(=O)[C@@H](NC(=O)[C@@H]1CSSC[C@H](NC(=O)[C@@H](N)CCCCN)C(=O)N[C@@H](CC(N)=O)C(=O)N[C@@H]([C@@H](C)O)C(=O)N[C@@H](C)C(=O)N[C@@H]([C@@H](C)O)C(=O)N1)C(C)C)[C@@H](C)O)C(=O)N[C@@H](CC(C)C)C(=O)N[C@@H](CO)C(=O)N1CCC[C@H]1C(=O)N[C@H](C(=O)N[C@@H](CC(N)=O)C(=O)N[C@H](C(=O)NCC(=O)N[C@@H](CO)C(=O)N[C@@H](CC(N)=O)C(=O)N[C@H](C(=O)N[C@@H](Cc1ccc(O)cc1)C(N)=O)[C@@H](C)O)C(C)C)[C@@H](C)O [raccoon IAPP] (H-KCNTATCVTQRLANFLLRSSNNLGAILSPTNVGSNTY-NH2; disulfide 2-7 (inferred); N-terminus and C-terminus assumed),able to inhibit such aggregation; also recorded: inhibit aggregate formation by hIAPP,prevent hIAPP aggregation in the presence of human insulin,less aggregation-prone than Pramlintide,protected the RIN-m cells from the toxic effects of hIAPP; also recorded: significant increase in cell viability; also recorded: rescue living cells from the toxic effects of hIAPP,significant ability to prevent fiber formation,,,,did not aggregate,some cellular toxicity,prevented hIAPP from aggregating

# From US12522635B2, “Amyloid peptide variants” (Loyola Marymount University, priority 2019, dated 2026)
